ChEMBL document CHEMBL4837250, “Discovery of LYC-55716: A Potent, Selective, and Orally Bioavailable Retinoic Acid Receptor-Related Orphan Receptor-γ (RORγ) Agonist for Use in Treating Cancer” (J Med Chem, 2021)
Converted amounts (≈) assume the structure as drawn.

Key:
CYP2D6 = CYP2D6 (Homo sapiens, UniProt P10635); experiment: in vitro; settings: probe testosterone
Description: Inhibition of CYP2D6 (unknown origin) assessed as oxidation of testosterone at 10 uM

in vivo [1] = settings: CD1, mouse, po, 10 mg/kg
in vitro [2] = settings: human, hepatocytes
in vivo [3] = settings: CD1, mouse, po, 10 mg/kg; remark: listed apart in the source
physchem = settings: PBS buffer, pH 7.4
Description: Solubility of the compound in pH 7.4 PBS buffer

CYP3A4 = CYP3A4 (Homo sapiens, UniProt P08684); experiment: in vitro; settings: probe testosterone
Sequence of CYP3A4 (P08684 whole entry): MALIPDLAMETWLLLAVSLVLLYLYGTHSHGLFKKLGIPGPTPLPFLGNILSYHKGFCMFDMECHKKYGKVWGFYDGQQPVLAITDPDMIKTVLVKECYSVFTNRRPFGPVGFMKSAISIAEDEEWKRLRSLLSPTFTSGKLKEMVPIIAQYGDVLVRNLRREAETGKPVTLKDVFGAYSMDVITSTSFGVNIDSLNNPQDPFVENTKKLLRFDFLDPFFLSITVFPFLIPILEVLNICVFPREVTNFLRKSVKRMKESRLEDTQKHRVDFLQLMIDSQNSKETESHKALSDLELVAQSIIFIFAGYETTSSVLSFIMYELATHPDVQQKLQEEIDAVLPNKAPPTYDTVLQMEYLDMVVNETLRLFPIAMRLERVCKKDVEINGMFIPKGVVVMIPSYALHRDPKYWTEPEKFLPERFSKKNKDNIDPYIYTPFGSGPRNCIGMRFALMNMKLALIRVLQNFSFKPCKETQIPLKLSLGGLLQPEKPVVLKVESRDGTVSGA
Description: Inhibition of CYP3A4 (unknown origin) assessed as oxidation of testosterone at 10 uM

in vivo [4] = settings: CD1, mouse, po, 10 mg/kg; remark: listed apart in the source
Description: Half life in CD1 mouse at 10 mg/kg, po

in vivo [5] = settings: CD1, mouse, plasma, po, 10 mg/kg
[6] = molecular target: T1, Nuclear receptor ROR-gamma (Homo sapiens, UniProt P51449)
T1 sequence (P51449 whole entry): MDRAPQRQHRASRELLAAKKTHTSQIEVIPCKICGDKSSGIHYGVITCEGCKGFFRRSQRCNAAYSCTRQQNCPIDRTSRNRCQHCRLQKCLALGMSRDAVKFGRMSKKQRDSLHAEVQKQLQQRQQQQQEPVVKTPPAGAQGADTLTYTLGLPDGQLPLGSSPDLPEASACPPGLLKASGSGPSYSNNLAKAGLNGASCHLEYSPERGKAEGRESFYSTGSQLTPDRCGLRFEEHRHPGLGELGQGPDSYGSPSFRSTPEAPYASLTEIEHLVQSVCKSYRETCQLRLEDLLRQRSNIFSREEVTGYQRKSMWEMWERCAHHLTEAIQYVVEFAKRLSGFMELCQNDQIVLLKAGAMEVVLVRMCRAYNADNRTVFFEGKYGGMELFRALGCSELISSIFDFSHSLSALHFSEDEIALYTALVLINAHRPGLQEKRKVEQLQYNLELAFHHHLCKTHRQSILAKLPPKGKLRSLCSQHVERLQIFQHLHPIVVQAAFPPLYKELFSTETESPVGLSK
Description: Agonist activity at human ROR-gamma LBD expressed in HEK293 cells assessed as transcriptional activity in presence of ursolic acid by Gal4-luciferase reporter assay

[7] = molecular target: T1, Nuclear receptor ROR-gamma; remark: listed apart in the source
Description: Agonist activity at human His-tagged RORgamma-LBD expressed in Sf9 cells assessed as inhibition of N-terminal biotinylated co-activator SRC1 recruitment in presence of ursolic acid measured after 60 mins by FRET assay

[8] = molecular target: T2, Nuclear receptor subfamily 1 group I member 2 (Homo sapiens, UniProt O75469)
T2 sequence (O75469 whole entry): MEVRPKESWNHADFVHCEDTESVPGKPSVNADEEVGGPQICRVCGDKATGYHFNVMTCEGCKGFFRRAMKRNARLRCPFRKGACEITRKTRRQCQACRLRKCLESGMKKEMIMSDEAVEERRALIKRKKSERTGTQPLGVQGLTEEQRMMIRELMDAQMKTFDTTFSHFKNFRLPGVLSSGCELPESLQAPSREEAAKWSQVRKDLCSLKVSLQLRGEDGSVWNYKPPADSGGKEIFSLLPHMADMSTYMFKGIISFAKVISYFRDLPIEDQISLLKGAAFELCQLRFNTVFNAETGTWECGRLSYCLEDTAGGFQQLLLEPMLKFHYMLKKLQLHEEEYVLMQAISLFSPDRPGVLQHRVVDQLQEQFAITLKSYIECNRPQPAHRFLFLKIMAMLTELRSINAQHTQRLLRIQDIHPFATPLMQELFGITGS
Description: Agonist activity at human PXR-gamma expressed in HEK293 cells assessed as transcriptional activity in presence of ursolic acid by Gal4-luciferase reporter assay

in vitro [9] = settings: human, hepatocytes; remark: listed apart in the source
Description: Clearance in human hepatocyte measured per 10^6 cells

[10] = molecular target: T3, Nuclear receptor ROR-beta (Homo sapiens, UniProt Q92753)
T3 sequence (Q92753 whole entry): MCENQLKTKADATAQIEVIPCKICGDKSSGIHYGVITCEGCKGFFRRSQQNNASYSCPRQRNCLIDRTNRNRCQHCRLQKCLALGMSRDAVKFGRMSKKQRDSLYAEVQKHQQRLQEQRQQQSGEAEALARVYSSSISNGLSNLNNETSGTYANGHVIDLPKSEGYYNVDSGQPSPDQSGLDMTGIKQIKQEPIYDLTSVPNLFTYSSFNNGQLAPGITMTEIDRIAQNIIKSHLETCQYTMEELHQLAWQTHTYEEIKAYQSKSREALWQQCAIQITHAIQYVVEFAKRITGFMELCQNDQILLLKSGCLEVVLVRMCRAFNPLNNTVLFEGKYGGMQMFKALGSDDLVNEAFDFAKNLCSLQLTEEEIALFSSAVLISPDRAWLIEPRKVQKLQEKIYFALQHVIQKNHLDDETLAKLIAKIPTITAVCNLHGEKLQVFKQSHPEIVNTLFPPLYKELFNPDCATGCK
Description: Agonist activity at RORbeta (unknown origin)

in vivo [11] = settings: cynomolgus monkey, iv, 1 mg/kg
Description: Half life in cynomolgus monkey rat at 1 mg/kg, iv

in vivo [12] = settings: Sprague-Dawley, rat, po, at 30 to 300 mg/kg
[13] = molecular target: T4, Nuclear receptor ROR-alpha (Homo sapiens, UniProt P35398)
T4 sequence (P35398 whole entry): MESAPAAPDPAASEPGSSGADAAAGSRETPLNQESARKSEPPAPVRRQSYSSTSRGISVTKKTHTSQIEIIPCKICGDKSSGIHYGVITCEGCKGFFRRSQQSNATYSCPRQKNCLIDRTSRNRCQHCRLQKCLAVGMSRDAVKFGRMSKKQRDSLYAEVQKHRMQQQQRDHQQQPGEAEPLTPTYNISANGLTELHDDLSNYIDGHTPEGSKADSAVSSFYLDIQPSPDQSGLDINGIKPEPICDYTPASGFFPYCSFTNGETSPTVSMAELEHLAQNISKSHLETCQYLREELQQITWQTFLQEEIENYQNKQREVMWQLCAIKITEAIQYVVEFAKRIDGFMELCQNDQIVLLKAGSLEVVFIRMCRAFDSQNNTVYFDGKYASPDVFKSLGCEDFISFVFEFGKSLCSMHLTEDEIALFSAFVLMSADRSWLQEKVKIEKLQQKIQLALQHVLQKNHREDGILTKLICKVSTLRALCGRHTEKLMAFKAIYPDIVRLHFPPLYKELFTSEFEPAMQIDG
Description: Agonist activity at RORalpha (unknown origin)

in vivo [14] = settings: Sprague-Dawley, rat, iv, 1 mg/kg
Description: Volume of distribution in Sprague-Dawley rat at 1 mg/kg, iv

MC-38 = experiment: animal or person; settings: Mus musculus, MC-38, po, 600 h, read-out: TGI
Description: Antitumor activity against mouse MC38 cells implanted in C57/BL6 mouse assessed as tumor growth inhibition at 30 mg/kg, po twice daily measured up to 25 days

in vivo [15] = settings: Sprague-Dawley, rat, iv, 1 mg/kg; remark: listed apart in the source
Description: Half life in Sprague-Dawley rat at 1 mg/kg, iv

in vitro [16] = settings: human, plasma
Description: Plasma protein binding in human

in vivo [17] = settings: cynomolgus monkey, iv, 1 mg/kg; remark: listed apart in the source
Description: Volume of distribution in cynomolgus monkey rat at 1 mg/kg, iv

cells = settings: Mus musculus, C57/BL6
Description: In vivo agonist activity at RORgamma in C57/BL6 mouse assessed as plasma concentration required to increase RORgamma targeted gene expression in isolated thymocytes

hERG (KCNH2) = hERG (KCNH2) (Homo sapiens, UniProt Q12809); experiment: in vitro
Sequence of hERG (KCNH2) (Q12809 whole entry): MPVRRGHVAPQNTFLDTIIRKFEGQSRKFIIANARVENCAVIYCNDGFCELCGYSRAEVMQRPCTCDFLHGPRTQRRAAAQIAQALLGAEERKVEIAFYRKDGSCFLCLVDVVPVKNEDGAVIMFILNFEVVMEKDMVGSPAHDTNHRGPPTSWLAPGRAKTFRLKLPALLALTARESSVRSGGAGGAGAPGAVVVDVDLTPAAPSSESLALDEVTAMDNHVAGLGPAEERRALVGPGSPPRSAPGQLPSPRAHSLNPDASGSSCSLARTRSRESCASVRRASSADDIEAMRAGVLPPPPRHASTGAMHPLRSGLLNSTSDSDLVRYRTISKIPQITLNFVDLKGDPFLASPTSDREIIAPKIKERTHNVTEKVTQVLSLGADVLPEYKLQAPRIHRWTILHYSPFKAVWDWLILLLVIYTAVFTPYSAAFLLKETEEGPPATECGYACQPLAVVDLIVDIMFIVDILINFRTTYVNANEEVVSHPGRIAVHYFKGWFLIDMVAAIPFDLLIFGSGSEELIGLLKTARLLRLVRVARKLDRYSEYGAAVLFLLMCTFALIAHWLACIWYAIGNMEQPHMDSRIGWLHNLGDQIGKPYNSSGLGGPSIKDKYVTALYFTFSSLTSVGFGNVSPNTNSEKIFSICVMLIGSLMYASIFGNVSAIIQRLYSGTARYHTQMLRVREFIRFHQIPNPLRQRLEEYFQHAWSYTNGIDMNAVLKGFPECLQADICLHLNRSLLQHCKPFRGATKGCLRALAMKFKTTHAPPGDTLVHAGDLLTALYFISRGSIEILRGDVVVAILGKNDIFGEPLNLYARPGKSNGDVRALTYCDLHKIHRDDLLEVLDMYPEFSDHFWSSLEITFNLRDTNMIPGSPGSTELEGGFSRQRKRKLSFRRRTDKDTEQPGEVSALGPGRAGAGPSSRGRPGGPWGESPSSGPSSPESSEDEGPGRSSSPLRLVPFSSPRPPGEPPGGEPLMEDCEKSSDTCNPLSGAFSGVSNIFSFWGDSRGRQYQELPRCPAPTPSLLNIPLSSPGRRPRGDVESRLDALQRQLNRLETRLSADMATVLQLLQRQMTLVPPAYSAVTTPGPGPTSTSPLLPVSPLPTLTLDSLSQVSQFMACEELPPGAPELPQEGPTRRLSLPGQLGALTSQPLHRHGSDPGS
Description: Inhibition of human ERG by patch-clamp assay

in vitro [18] = settings: mouse, plasma
Description: Plasma protein binding in mouse

in vivo [19] = settings: cynomolgus monkey, po, at 30 to 300 mg/kg

Sequence of CYP2D6 (P10635 whole entry): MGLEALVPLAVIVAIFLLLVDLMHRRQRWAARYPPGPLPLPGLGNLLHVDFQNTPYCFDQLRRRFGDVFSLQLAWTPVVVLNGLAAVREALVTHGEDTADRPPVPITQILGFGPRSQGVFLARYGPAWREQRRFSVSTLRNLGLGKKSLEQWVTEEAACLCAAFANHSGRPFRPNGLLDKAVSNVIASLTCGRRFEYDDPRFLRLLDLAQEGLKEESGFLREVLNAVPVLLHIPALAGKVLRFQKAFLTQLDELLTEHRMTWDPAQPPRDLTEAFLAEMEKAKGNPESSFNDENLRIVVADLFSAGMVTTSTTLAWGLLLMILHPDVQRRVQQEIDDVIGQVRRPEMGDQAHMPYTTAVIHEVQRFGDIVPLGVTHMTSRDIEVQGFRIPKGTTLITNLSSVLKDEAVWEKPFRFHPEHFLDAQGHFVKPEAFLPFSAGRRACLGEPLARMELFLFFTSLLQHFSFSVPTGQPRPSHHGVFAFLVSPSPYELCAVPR

Row | SMILES | inhibition at 10 µM (CYP2D6) | AUC(0-inf) (in vivo [1]) | hepatocyte CLint (in vitro [2]) | bioavailability (in vivo [3]) | solubility (physchem) | inhibition at 10 µM (CYP3A4) | half-life (in vivo [4]) | CL/F (in vivo [5]) | EC50 [6] | EC50 [7] | EC50 [8] | further results
1 | O=C(O)CC[C@H]1CN(S(=O)(=O)c2cccc(C(F)(F)F)c2)c2cc(/C=C/c3c(Cl)cccc3C(F)(F)F)ccc2O1 | 3% | 71000 ng·h/mL | 20 µL/min/1e6 cells | 86% | 15 µM (≈ 9.3 µg/mL) | 8% | 3.69 h | 2 mL/min/kg |  |  |  | 
2 | O=C(O)C1(C[C@H]2CN(S(=O)(=O)c3cccc(C(F)(F)F)c3)c3cc(-c4cccc(Cl)c4F)ccc3O2)CCOCC1 | 9% |  | 13 µL/min/1e6 cells |  | 93 µM (≈ 57.1 µg/mL) | 36% |  |  | 0.103 µM | 0.024 µM | > 10 µM | 
3 | CCOc1nn2c(c1S(=O)(=O)N1C[C@H](CCC(=O)O)Oc3ccc(/C=C(\C)c4c(F)cccc4Cl)cc31)CCCC2 | 6% | 35600 ng·h/mL | 15 µL/min/1e6 cells | 100% | 288 µM (≈ 174 µg/mL) | 19% | 1.66 h | 7.8 mL/min/kg | 0.199 µM |  | > 10 µM | 
4 | O=C(O)C1(C[C@H]2CN(S(=O)(=O)c3cccc(C(F)(F)F)c3)c3cc(-c4cc(F)cc(OC(F)F)c4)ccc3O2)COC1 |  | 1400 ng·h/mL | 17 µL/min/1e6 cells | 59% | 262 µM (≈ 162 µg/mL) |  | 2.74 h | 70.2 mL/min/kg |  |  |  | hepatocyte CLint (in vitro [9]): 17 µL/min/1e6 cells
5 | O=C(O)C1(C[C@H]2CN(S(=O)(=O)c3cccc(C(F)(F)F)c3)c3cc(-c4cc(F)cc(OC(F)F)c4)ccc3O2)CCOCC1 | 4% |  | 9 µL/min/1e6 cells |  | 90 µM (≈ 58.1 µg/mL) | -2% |  |  | 0.058 µM | 0.008 µM | 13 µM | 
6 | O=C(O)CC[C@H]1CN(S(=O)(=O)c2cccc(C(F)(F)F)c2)c2cc(-c3ccccc3Cl)ccc2O1 | 0% | 11700 ng·h/mL | 32 µL/min/1e6 cells | 78% | 243 µM (≈ 128 µg/mL) | 20% | 4.44 h | 11.1 mL/min/kg | 0.414 µM | 0.009 µM | > 10 µM | 

Second part, led by results:

Row | inhibition at 10 µM (CYP2D6) | AUC(0-inf) (in vivo [1]) | hepatocyte CLint (in vitro [2]) | bioavailability (in vivo [3]) | solubility (physchem) | inhibition at 10 µM (CYP3A4) | half-life (in vivo [4]) | CL/F (in vivo [5]) | EC50 [6] | EC50 [7] | EC50 [8] | SMILES | further results
7 | 6% | 9820 ng·h/mL | 7.7 µL/min/1e6 cells | 78% | 13 µM (≈ 7.22 µg/mL) | 28% | 7.35 h | 13.2 mL/min/kg | 0.344 µM | 0.013 µM | > 10 µM | CC(C)(C[C@H]1CN(S(=O)(=O)c2cccc(C(F)(F)F)c2)c2cc(-c3cc(F)ccc3F)ccc2O1)C(=O)O | 
8 | 8% |  | 21 µL/min/1e6 cells |  | 43 µM (≈ 25.7 µg/mL) | 5% |  |  | > 10 µM | 0.005 µM | > 10 µM | O=C(O)C1(C[C@H]2CN(S(=O)(=O)c3cccc(C(F)(F)F)c3)c3cc(-c4cc(F)ccc4F)ccc3O2)CCOCC1 | 
9 | 6% | 19600 ng·h/mL | 26 µL/min/1e6 cells | 95% | 247 µM (≈ 134 µg/mL) | 11% | 3.45 h | 8.1 mL/min/kg | 0.144 µM | 0.262 µM | > 10 µM | O=C(O)CC[C@H]1CN(S(=O)(=O)c2cccc(C(F)(F)F)c2)c2cc(-c3cccc(F)c3Cl)ccc2O1 | 
10 | 6% | 3240 ng·h/mL |  | 55% | 10 µM (≈ 6.04 µg/mL) | 9.5% | 4.31 h |  |  |  |  | CC(C)(C[C@H]1CN(S(=O)(=O)c2cccc(C(F)(F)F)c2)c2cc(-c3cc(F)cc(OC(F)F)c3)ccc2O1)C(=O)O [CINTIRORGON] | EC50 [10]: > 10 µM; half-life (in vivo [11]): 6.6 h; bioavailability (in vivo [12]): ≥ 100%; EC50 [13]: > 10 µM; Vd (in vivo [14]): 5.7 L/kg; inhibition in vivo at 30 mg/kg (MC-38): 46%; half-life (in vivo [15]): 2.8 h; fraction unbound (in vitro [16]): 0.044; Vd (in vivo [17]): 1.42 L/kg; EC50 (cells): 0.338 µM; IC20 (hERG (KCNH2)): > 50 µM; fraction unbound (in vitro [18]): 0.033; bioavailability (in vivo [19]): ≥ 100%
